Values of other authors, collected in US20160317408A1, “KERATIN FIBRE DYEING METHOD” (ALFA PARF GROUP S.p.A., priority 2015, published 2016).

Experiments:
[1] = value assigned from SCCS memorandum class; composition containing the dye
[2] = SCCS Opinion 1509/13, Memorandum on hair dye chemical sensitisation

SMILES | individual sensitisation index value of the dye [1] | sensitising power classification [2]
Nc1ccc(OCCO)c(N)c1 [2,4-diaminophenoxyethanol] | 2 | Moderate
Nc1ncccc1O [2-Amino-3-hydroxypyridine] |  | not classifiable
Cc1c(O)cccc1O [2-methylresorcinol] | 2 | Moderate
Oc1ccc(Cl)c(O)c1 [4-chlororesorcinol] | 2 | Moderate
Nc1ccc(N(CCO)CCO)cc1 [N,N-bis(2-hydroxyethyl)-p-phenylenediamine] | 1 | Strong
Nc1ccc(NCCO)cc1 [hydroxyethyl-p-phenylenediamine] |  | Strong
Nc1ccc(N)cc1 [p-phenylenediamine] | 0 | Extreme
Oc1cccc(O)c1 [resorcinol] |  | Strong
